Columns and labels:
[1] = target: GDP-bound KRAS wild-type protein (Homo sapiens, UniProt P01116); assay: Binding to KRAS by surface plasmon resonance (SPR), dissociation constant KD; conditions: Single Cycle Kinetics
In short: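 Measured at 30°C: SPR with GDP-loaded, E. coli-expressed biotin-Avi RAS captured (~100–300 RU), ascending 75 s compound injections, HBS pH 7.4 with GDP, MgCl2, 4% DMSO. KD from 1:1 fit.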

[2] = target: GDP-bound NRAS wild-type protein (Homo sapiens, UniProt P01111); assay: Binding to NRAS by surface plasmon resonance (SPR), KD and KD ratio to KRAS; conditions: ratio of KD for GDP-bound NRAS wild-type protein to KD for KRAS
In short: (§1)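 Compound binding is evaluated by SPR single-cycle kinetics, with concentrations added intermittently from low to high for 75 s each. Target surfaces carry GDP-loaded biotinylated Avi-RAS at about 100–300 RU, regenerated after each cycle; temperature 30°C. A 1:1 binding model gives KD.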

HRAS wild-type protein = HRAS wild-type protein (Homo sapiens, UniProt P01112); assay: Binding to HRAS by surface plasmon resonance (SPR), KD and KD ratio to KRAS; conditions: ratio of KD for HRAS wild-type protein to KD for KRAS
In short: as §1

[3] = test system: human lung cancer strain NCI-H441; assay type: cell-based
In short: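 Proliferation was scored by […] measured after the reagent was added to cultures kept at 37°C in 5% carbon dioxide.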

[4] = test system: human gastric cancer strain SNU-1; assay type: cell-based
In short: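 SNU-1 gastric cancer cells, 250 cells/well in RPMI-1640 with 10% FBS, glucose, HEPES and sodium pyruvate, plated onto serially diluted compound in DMSO.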

[5] = test system: human pancreatic cancer strain KP4; assay type: cell-based
In short: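 KP4 pancreatic cancer cells seeded at 500 cells/well in DMEM/Ham's F-12 with 10% FBS onto serially diluted compound. Viability read by CellTiter-Glo luminescence.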

[6] = test system: human colorectal cancer strain GP2d; assay type: cell-based
In short: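 Cells seeded at 500 cells/well in DMEM with 10% FBS onto serially diluted compound in DMSO, then cultured 7 days at 37°C, 5% CO2. Viability read by CellTiter-Glo luminescence.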

[7] = test system: human gastric cancer strain GSU; assay type: cell-based
In short: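 Cells seeded at 200 per well in RPMI-1640 with 10% FBS onto serially diluted compound (DMSO) in U-bottom plates. Viability read by CellTiter-Glo luminescence.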

[8] = test system: human ovarian cancer strain OV7; assay type: cell-based
In short: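 OV7 cells, 250 per well, in DMEM/Ham's F-12 with 5% FBS, 0.5 µg/mL hydrocortisone and 10 µg/mL insulin, grown 7 days at 37°C with serially diluted compound. Viability by CellTiter-Glo luminescence.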

[9] = test system: human bladder cancer strain UM-UC-3; assay type: cell-based
In short: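 UM-UC-3 human bladder cancer cells were seeded at 250 cells/well onto serially diluted compound in MEM with 10% FBS. Viability was read as CellTiter-Glo luminescence.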

Chain of HRAS wild-type protein (P01112 whole entry): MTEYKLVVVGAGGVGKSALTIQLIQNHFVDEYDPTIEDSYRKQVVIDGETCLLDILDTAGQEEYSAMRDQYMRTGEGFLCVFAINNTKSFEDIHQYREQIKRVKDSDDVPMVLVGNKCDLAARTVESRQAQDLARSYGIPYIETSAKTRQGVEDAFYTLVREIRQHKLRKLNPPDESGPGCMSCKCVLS
Chain of GDP-bound KRAS wild-type protein (P01116 1-188 isoform P01116-2): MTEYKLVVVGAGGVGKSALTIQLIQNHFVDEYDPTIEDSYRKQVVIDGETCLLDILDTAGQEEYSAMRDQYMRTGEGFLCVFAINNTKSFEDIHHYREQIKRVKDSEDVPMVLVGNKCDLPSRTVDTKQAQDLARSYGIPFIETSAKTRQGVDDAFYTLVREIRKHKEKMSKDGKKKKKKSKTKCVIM
Chain of GDP-bound NRAS wild-type protein (P01111 whole entry): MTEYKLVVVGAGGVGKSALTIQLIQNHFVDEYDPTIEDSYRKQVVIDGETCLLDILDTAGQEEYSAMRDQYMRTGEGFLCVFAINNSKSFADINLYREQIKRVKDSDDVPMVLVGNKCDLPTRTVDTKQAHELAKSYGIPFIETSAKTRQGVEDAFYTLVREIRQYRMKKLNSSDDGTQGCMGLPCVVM

## CCO[C@@H]1C[C@H]2C(=O)N(C)C3(CCC3)C(=O)N(C)[C@@H](C3CCCC3)C(=O)N(C)[C@H](C(=O)N(C)C)CC(=O)N(C)[C@@H](CC(C)C)C(=O)N[C@@H]([C@@H](C)CC)C(=O)N(C)CC(=O)N(C)[C@H]3C/C=C\CCN(C3=O)[C@@H](Cc3ccc(C(F)(F)F)cc3)C(=O)N(C)CC(=O)N[C@@H](CCc3cc(F)c(C(F)(F)F)c(F)c3)C(=O)N2C1 [PP3484, (2S,8S,12R,14S,20S,23S,27S,30S,36S,38Z)-20-cyclopentyl-8-[2-[3,5-difluoro-4-(trifluoromethyl)phenyl]ethyl]-12-ethoxy-27-isobutyl-N,N,4,16,19,22,26,32,35-nonamethyl-30-[(1S)-1-methylpropyl]-3,6,9,15,18,21,25,28,31,34,42-undecaoxo-2-[[4-(trifluoromethyl)phenyl]methyl]spiro[1,4,7,10,16,19,22,26,29,32,35-undecazatricyclo[34.5.1.0^10,14]dotetracont-38-ene-17,1'-cyclobutane]-23-carboxamide]
[1]
  Kd: 0.027 nM
[2]
  NRAS /KRAS: A (a compound having 10 or more and less than 20 is denoted as A)
HRAS wild-type protein
  HRAS /KRAS: A (a compound having 10 or more and less than 20 is denoted as A)
[3]
  IC50: 2.2 nM
[4]
  IC50: 3.1 nM
[5]
  IC50: 1.9 nM
[6]
  IC50: 1.8 nM
[7]
  IC50: 0.6 nM
[8]
  IC50: 4.1 nM
[9]
  IC50: 0.9 nM
